Assay [1] addresses human TLR7 (Homo sapiens (Human), UniProt Q9NYK1). Kind of assay: TLR7 inhibition reporter assay (HEK-Blue SEAP). The assay is classed as cell-based. To be noted: HEK-Blue cells overexpressing human TLR7, gardiquimod 7.5 μM stimulation. For orientation: Reporter assays use an easily measured gene product as a stand-in for the process of interest.
Description: (§1) HEK-Blue™-cells (Invivogen) overexpressing human TLR7, TLR8 or TLR9 receptors were used for screening inhibitors of these receptors using an inducible SEAP (secreted embryonic alkaline phosphatase) reporter gene under the control of the IFN-β minimal promoter fused to five NF-κB and AP-1-binding sites. Briefly, cells are seeded into Greiner 384 well plates (15000 cells per well for TLR7, 20,000 for TLR8 and 25,000 for TLR9) and then treated with test compounds in DMSO to yield a final dose response concentration range of 0.05 nM-50 μM. After a 30 minute compound pre-treatment at room temperature, the cells are then stimulated with a TLR7 ligand (gardiquimod at a final concentration of 7.5 μM), TLR8 ligand (R848 at a final concentration of 15.9 μM) or TLR9 ligand (ODN2006 at a final concentration of 5 nM) to activate NF-κB and AP-1 which induce the production of SEAP. After a 22 hour incubation at 37° C., 500 CO2, SEAP levels are determined with the addition of HEK-Blue™ Detection reagent (Invivogen), a cell culture medium that allows for detection of SEAP, according to manufacturer's specifications.
Assay [2] concerns the target human TLR8 (Homo sapiens (Human), UniProt Q9NR97). As to the kind of experiment: TLR8 inhibition reporter assay (HEK-Blue SEAP).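 Note: SEAP driven by IFN-β minimal promoter with five NF-κB and AP-1 sites, compounds tested 0.05 nM to 50 µM, 22 h incubation, inhibition relative to agonist plus DMSO wells.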 As to conditions: read-out: TLR8 IC50; HEK-Blue cells overexpressing human TLR8, R848 15.9 μM stimulation, SEAP reporter.
The target of assay [3] is human TLR9 (Homo sapiens (Human), UniProt Q9NR96). As to the kind of experiment: TLR9 inhibition reporter assay (HEK-Blue SEAP).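 Note: SEAP driven by IFN-β minimal promoter carrying five NF-κB and AP-1 sites, 22 h at 37 °C, compounds 0.05 nM–50 µM, inhibition scaled between agonist-plus-DMSO and reference-inhibitor wells.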 To be noted: read-out: TLR9 IC50; HEK-Blue cells overexpressing human TLR9, ODN2006 5 nM stimulation, SEAP reporter.
Description: as §1

Bounds are passed on as bounds.

Broadly, the IC50 is the concentration needed to halve the response being measured.

Chain of human TLR8 (Q9NR97 27-1041): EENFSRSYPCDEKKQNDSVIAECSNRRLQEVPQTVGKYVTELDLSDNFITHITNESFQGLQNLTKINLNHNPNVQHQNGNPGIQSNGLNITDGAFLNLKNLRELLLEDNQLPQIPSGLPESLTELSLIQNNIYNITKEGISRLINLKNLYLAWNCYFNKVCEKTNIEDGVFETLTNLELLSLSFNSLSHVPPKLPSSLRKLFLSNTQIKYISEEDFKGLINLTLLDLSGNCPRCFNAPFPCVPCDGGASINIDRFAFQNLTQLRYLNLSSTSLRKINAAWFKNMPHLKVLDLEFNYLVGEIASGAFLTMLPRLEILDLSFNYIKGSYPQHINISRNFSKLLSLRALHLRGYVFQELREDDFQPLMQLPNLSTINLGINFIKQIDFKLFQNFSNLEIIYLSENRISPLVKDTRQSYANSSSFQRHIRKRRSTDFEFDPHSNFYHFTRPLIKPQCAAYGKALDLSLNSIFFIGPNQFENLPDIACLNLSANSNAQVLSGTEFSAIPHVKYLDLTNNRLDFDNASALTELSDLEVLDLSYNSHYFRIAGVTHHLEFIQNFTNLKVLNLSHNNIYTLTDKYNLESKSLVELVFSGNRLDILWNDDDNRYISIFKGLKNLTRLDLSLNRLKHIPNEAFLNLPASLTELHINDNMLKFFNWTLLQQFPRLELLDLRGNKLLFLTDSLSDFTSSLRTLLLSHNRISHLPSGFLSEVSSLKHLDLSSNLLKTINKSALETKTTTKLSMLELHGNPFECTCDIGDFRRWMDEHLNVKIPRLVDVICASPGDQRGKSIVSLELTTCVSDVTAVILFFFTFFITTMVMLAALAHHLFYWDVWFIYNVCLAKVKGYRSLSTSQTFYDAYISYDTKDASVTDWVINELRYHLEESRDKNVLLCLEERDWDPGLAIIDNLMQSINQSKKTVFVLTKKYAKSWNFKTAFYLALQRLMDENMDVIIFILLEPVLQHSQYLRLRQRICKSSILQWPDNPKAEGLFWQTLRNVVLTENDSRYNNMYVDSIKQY
Chain of human TLR7 (Q9NYK1 27-1049): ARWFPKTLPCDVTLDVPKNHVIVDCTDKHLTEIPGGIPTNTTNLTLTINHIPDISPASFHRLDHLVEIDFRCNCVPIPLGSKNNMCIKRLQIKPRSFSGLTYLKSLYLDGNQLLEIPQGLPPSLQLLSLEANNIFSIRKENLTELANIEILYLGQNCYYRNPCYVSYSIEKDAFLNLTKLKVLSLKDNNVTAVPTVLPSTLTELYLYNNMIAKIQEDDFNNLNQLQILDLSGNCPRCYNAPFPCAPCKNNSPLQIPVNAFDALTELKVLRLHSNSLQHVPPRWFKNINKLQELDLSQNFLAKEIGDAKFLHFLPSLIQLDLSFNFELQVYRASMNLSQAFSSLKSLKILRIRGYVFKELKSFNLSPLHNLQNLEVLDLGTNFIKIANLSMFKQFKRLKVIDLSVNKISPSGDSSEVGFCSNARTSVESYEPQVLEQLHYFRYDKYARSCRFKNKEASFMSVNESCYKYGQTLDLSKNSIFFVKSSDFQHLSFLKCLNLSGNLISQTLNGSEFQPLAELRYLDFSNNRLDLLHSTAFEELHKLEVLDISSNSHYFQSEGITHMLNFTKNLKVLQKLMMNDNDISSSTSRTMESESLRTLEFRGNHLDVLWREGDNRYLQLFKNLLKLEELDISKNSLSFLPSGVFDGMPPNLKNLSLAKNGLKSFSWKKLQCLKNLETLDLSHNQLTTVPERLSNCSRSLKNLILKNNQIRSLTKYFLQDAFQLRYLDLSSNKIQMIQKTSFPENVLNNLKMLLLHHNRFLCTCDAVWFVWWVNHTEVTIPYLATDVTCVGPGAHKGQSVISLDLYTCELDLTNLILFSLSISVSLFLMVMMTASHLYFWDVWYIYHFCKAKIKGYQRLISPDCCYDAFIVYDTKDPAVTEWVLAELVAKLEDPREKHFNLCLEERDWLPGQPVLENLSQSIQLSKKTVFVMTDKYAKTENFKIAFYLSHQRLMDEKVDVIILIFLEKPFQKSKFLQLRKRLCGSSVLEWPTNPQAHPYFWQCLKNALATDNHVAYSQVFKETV
Chain of human TLR9 (Q9NR96 26-1032): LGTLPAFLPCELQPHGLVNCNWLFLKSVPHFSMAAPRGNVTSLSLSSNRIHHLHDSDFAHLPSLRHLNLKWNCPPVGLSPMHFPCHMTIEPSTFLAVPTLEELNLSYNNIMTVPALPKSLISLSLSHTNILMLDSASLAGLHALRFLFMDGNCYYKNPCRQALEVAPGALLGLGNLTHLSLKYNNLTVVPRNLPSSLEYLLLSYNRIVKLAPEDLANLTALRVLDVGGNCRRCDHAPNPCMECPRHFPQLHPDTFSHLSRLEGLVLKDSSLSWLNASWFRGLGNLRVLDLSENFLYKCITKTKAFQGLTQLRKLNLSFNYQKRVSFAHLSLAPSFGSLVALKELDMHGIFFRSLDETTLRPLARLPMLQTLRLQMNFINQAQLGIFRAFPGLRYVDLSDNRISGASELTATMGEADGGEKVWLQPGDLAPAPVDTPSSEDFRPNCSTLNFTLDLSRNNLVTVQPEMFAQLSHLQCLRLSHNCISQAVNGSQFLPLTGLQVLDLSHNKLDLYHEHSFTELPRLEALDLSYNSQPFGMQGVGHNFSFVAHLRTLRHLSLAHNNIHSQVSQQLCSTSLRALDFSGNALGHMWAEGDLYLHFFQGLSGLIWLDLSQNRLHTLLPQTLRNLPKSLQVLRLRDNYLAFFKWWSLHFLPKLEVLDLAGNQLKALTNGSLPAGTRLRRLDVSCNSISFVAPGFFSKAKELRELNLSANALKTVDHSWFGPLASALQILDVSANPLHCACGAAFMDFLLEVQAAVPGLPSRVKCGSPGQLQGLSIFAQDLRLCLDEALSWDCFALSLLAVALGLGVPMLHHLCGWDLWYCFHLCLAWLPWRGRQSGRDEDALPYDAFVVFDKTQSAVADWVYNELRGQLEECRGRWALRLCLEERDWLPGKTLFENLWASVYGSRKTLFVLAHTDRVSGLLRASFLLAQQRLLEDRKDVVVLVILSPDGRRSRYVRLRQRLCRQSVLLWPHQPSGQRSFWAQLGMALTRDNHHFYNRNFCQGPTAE

Turning to `Cc1c(-c2[nH]c3cnc(C4CCC(NCC(F)F)CC4)cc3c2C(C)C)cn2ncnc2c1C` (stereo not drawn) [Example 336], the concentration for half-maximal inhibition (IC50) is 8.8 nM in assay [1], 36 nM in assay [2] and 4000 nM in assay [3].

In the case of `Cc1c(-c2[nH]c3cnc(C4CCC(NCC(C)(C)C)CC4)cc3c2C(C)C)cn2ncnc2c1C` (stereo not drawn) [Example 337], the IC50 in assay [1] was 3.9 nM; in assay [2], 4 nM; in assay [3], 777 nM.

Turning to `CNC(=O)CN(C)C1CCC(c2cc3c(C(C)C)c(-c4cc(OC)c5ncnn5c4)[nH]c3cn2)CC1` (stereo not drawn) [Example 338], the IC50 in assay [1] was 3.4 nM; in assay [2], 30 nM; in assay [3], 1110 nM.

Consider `CNCC(=O)NC1CCN(c2cc3c(C(C)C)c(-c4cc(OC)c5ncnn5c4)[nH]c3cn2)CC1` [Example 339], for which the 50% inhibitory concentration (IC50) in assay [1] worked out at 12 nM; in assay [2], 28 nM; in assay [3], 677 nM.

In the case of `COc1cc(-c2[nH]c3cnc(C4CCC(N(C)C)CC4)cc3c2C(C)C)cn2ncnc12` (stereo not drawn) [Example 340], the values for the IC50 in assay [1], in assay [2] and in assay [3] were 1270 nM, 708 nM and 11500 nM, respectively.

As for `Cc1cc(-c2[nH]c3cnc(C4CCN(C5COC5)CC4)cc3c2C(C)C)cn2ncnc12` [Example 341], the IC50 was 3.2 nM in assay [1], 21 nM in assay [2] and 1030 nM in assay [3].

For `COc1cc(-c2[nH]c3cnc(C4CCC(NC5CCOC5)CC4)cc3c2C(C)C)cn2ncnc12` (stereo not drawn) [Example 342], the values for the concentration for half-maximal inhibition (IC50) in assay [1], in assay [2] and in assay [3] were 3.8 nM, 8.3 nM and 224 nM, respectively.

Take `COc1cc(-c2[nH]c3cnc(C4CCN(C(=O)CN(C)C)CC4)cc3c2C(C)C)cn2ncnc12` [Example 343]: the IC50 in assay [1] stood at 28 nM; in assay [2] it was 190 nM; in assay [3], 217 nM.

Regarding `COc1cc(-c2[nH]c3cnc(N4CCC(NC(=O)CN(C)C)CC4)cc3c2C(C)C)cn2ncnc12` [Example 344], the IC50 in assay [1] worked out at 1.7 nM; in assay [2] it was 3.5 nM; in assay [3] it was 257 nM.

As to `COc1cc(-c2[nH]c3cnc(N4CCC(NCC(N)=O)CC4)cc3c2C(C)C)cn2ncnc12` [Example 345], the results for the IC50 in assay [1], in assay [2] and in assay [3] were 11 nM, 13 nM and 712 nM, respectively.

On to `Cc1c(-c2[nH]c3cnc(C4CCC(NC5COC5)CC4)cc3c2C(C)C)cn2ncnc2c1C` (stereo not drawn) [Example 346], for which the IC50 in assay [1] came out at 3.3 nM; in assay [2] it was 14 nM; in assay [3], 750 nM.

With `COCCNC1CCC(c2cc3c(C(C)C)c(-c4cn5ncnc5c(C)c4C)[nH]c3cn2)CC1` (stereo not drawn) [Example 347], the IC50 in assay [1] turned out to be 3.9 nM; in assay [2], 30 nM; in assay [3], 790 nM.

For the molecule `COCCNC1CCC(c2cc3c(C(C)C)c(-c4cn5ncnc5c(C)c4C)[nH]c3cn2)CC1` (stereo not drawn) [Example 348], the IC50 was determined as 3.5 nM in assay [1], 9 nM in assay [2] and 468 nM in assay [3].

For `Cc1c(-c2[nH]c3cnc(C4CCC(NC5CCOC5)CC4)cc3c2C(C)C)cn2ncnc2c1C` (stereo not drawn) [Example 349], the IC50 is 1.1 nM in assay [1], 3.6 nM in assay [2] and 344 nM in assay [3].

For the molecule `Cc1c(-c2[nH]c3cnc(C4CCC(NCC(F)F)CC4)cc3c2C(C)C)cn2ncnc2c1C` (stereo not drawn) [Example 350], the figures for the IC50 in assay [1], in assay [2] and in assay [3] were 1.4 nM, 4.7 nM and 1080 nM, respectively.

Take `Cc1c(-c2[nH]c3cnc(C4CCC(NCC(C)(C)C)CC4)cc3c2C(C)C)cn2ncnc2c1C` (stereo not drawn) [Example 351]: the IC50 is 11 nM in assay [1], 5.4 nM in assay [2] and 345 nM in assay [3].

With `Cc1c(-c2[nH]c3cnc(N4CCN(CC(=O)N(C)C)CC4)c(C)c3c2C(C)C)cn2ncnc2c1C` [Example 352, 2-(4-(2-(7,8-dimethyl-[1,2,4]triazolo[1,5-a]pyridin-6-yl)-3-isopropyl-4-methyl-1H-pyrrolo[2,3-c]pyridin-5-yl)piperazin-1-yl)-N,N-dimethylacetamide], the IC50 was determined as 14 nM in assay [1], 0.73 nM in assay [2] and 19800 nM in assay [3].

As to `COc1cc(-c2[nH]c3cnc(N4CCNCC4)c(F)c3c2C(C)C)cn2ncnc12` [Example 353, 6-(4-fluoro-3-isopropyl-5-(piperazin-1-yl)-1H-pyrrolo[2,3-c]pyridin-2-yl)-8-methoxy-[1,2,4]triazolo[1,5-a]pyridine], the IC50 in assay [1] is 0.61 nM; in assay [2] it was 1.4 nM; in assay [3] it was 2530 nM.

As to `COc1cc(-c2[nH]c3cnc(N4CC5(CNC5)C4)c(F)c3c2C(C)C)cn2ncnc12` [Example 355, 6-(4-fluoro-3-isopropyl-5-(2,6-diazaspiro[3.3]heptan-2-yl)-1H-pyrrolo[2,3-c]pyridin-2-yl)-8-methoxy-[1,2,4]triazolo[1,5-a]pyridine], the figures for the IC50 in assay [1], in assay [2] and in assay [3] were 33 nM, 22 nM and 5590 nM, respectively.

For `CNC(=O)CN1CC2(C1)CN(c1ncc3[nH]c(-c4cc(OC)c5ncnn5c4)c(C(C)C)c3c1F)C2` [Example 356, 2-(6-(4-fluoro-3-isopropyl-2-(8-methoxy-[1,2,4]triazolo[1,5-a]pyridin-6-yl)-1H-pyrrolo[2,3-c]pyridin-5-yl)-2,6-diazaspiro[3.3]heptan-2-yl)-N-methylacetamide], the IC50 worked out at 15 nM in assay [1], 6.1 nM in assay [2] and 18500 nM in assay [3].

As to `COc1cc(-c2[nH]c3cnc(N4CC5(CN(CCS(C)(=O)=O)C5)C4)c(F)c3c2C(C)C)cn2ncnc12` [Example 357], the IC50 turned out to be 21 nM in assay [1], 10 nM in assay [2] and 37400 nM in assay [3].

`COc1cc(-c2[nH]c3cnc(N4CCN(CC(N)=O)CC4)c(F)c3c2C(C)C)cn2ncnc12` [Example 358]: the IC50 in assay [1] is 3.6 nM; in assay [2], 3.8 nM; in assay [3], greater than 50000 nM.

With `CNC(=O)CN1CCN(c2ncc3[nH]c(-c4cc(OC)c5ncnn5c4)c(C(C)C)c3c2F)CC1` [Example 359], the IC50 in assay [1] was 2.5 nM; in assay [2] it was 2.7 nM; in assay [3], greater than 50000 nM.

For the molecule `COc1cc(-c2[nH]c3cnc(N4CCN(CC(=O)N(C)C)CC4)c(F)c3c2C(C)C)cn2ncnc12` [Example 360], the IC50 was 2.9 nM in assay [1], 1.5 nM in assay [2] and 23000 nM in assay [3].

For `COCCN1CCN(c2ncc3[nH]c(-c4cc(OC)c5ncnn5c4)c(C(C)C)c3c2F)CC1` [Example 361], the IC50 in assay [1] stood at 3.8 nM; in assay [2], 0.76 nM; in assay [3] it was 4850 nM.

As for `COc1cc(-c2[nH]c3cnc(N4CCN(CC(C)(C)O)CC4)c(F)c3c2C(C)C)cn2ncnc12` [Example 364], the IC50 in assay [1] came to 2.7 nM; in assay [2], 0.38 nM; in assay [3] it was 8700 nM.

As to `COc1cc(-c2[nH]c3cnc(N4CCN(CC#N)CC4)c(F)c3c2C(C)C)cn2ncnc12` [Example 365], the figures for the IC50 in assay [1], in assay [2] and in assay [3] were 0.42 nM, 0.51 nM and 1490 nM, respectively.

As for `COc1cc(-c2[nH]c3cnc(N4CCN(CC(F)(F)F)CC4)c(F)c3c2C(C)C)cn2ncnc12` [Example 366], the IC50 in assay [1] was found to be 3.8 nM; in assay [2], 39 nM; in assay [3] it was 16200 nM.

As for `COc1cc(-c2[nH]c3cnc(N4CC5(CN(C(=O)CN6CCOCC6)C5)C4)c(F)c3c2C(C)C)cn2ncnc12` [Example 367, 1-(6-(4-fluoro-3-isopropyl-2-(8-methoxy-[1,2,4]triazolo[1,5-a]pyridin-6-yl)-1H-pyrrolo[2,3-c]pyridin-5-yl)-2,6-diazaspiro[3.3]heptan-2-yl)-2-morpholinoethan-1-one], the IC50 is 159 nM in assay [1], 52 nM in assay [2] and greater than 50000 nM in assay [3].

Turning to `COc1cc(-c2[nH]c3cnc(N4CC5(C4)CN(C4COC4)C5)c(F)c3c2C(C)C)cn2ncnc12` [Example 369, 6-(4-fluoro-3-isopropyl-5-(6-(oxetan-3-yl)-2,6-diazaspiro[3.3]heptan-2-yl)-1H-pyrrolo[2,3-c]pyridin-2-yl)-8-methoxy-[1,2,4]triazolo[1,5-a]pyridine], the IC50 in assay [1] was 27 nM; in assay [2], 23 nM; in assay [3], greater than 50000 nM.

As to `COc1cc(-c2[nH]c3cnc(N4CC5(C4)CN(C4CCOCC4)C5)c(F)c3c2C(C)C)cn2ncnc12` [Example 370], the IC50 worked out at 19 nM in assay [1], 174 nM in assay [2] and 10300 nM in assay [3].

For `COc1cc(-c2[nH]c3cnc(N4CC5(CN(CC6CCOCC6)C5)C4)c(F)c3c2C(C)C)cn2ncnc12` [Example 371], the IC50 stood at 9 nM in assay [1], 5.9 nM in assay [2] and 5480 nM in assay [3].

With `COc1cc(-c2[nH]c3cnc(N4CC5(CN(CC(C)C)C5)C4)c(F)c3c2C(C)C)cn2ncnc12` [Example 372], the IC50 in assay [1] was 7.9 nM; in assay [2] it was 440 nM; in assay [3], 5440 nM.

In the case of `COc1cc(-c2[nH]c3cnc(N4CC5(C4)CN(C(C)C)C5)c(F)c3c2C(C)C)cn2ncnc12` [Example 373], the IC50 was found to be 8.1 nM in assay [1], 7.1 nM in assay [2] and 5820 nM in assay [3].

Consider `COc1cc(-c2[nH]c3cnc(N4CC5(CN(CC6CC6)C5)C4)c(F)c3c2C(C)C)cn2ncnc12` [Example 374], for which the IC50 worked out at 6 nM in assay [1], 39 nM in assay [2] and 5470 nM in assay [3].

For the molecule `COc1cc(-c2[nH]c3cnc(N4CC5(CN(CC6CCC6)C5)C4)c(F)c3c2C(C)C)cn2ncnc12` [Example 375], the IC50 in assay [1] was 17 nM; in assay [2], greater than 3120 nM; in assay [3], 7210 nM.

`COc1cc(-c2[nH]c3cnc(N4CC5(CN(CC6(C)COC6)C5)C4)c(F)c3c2C(C)C)cn2ncnc12` [Example 376]: the concentration for half-maximal inhibition (IC50) is 9.5 nM in assay [1], greater than 3120 nM in assay [2] and 6000 nM in assay [3].

(Values after patent US11912703B2, “6-azaindole compounds” (BRISTOL-MYERS SQUIBB COMPANY, priority 2017, dated 2024).)
